# Experimental data from patent US20240165151A1, “COMPOSITIONS AND METHODS FOR TREATING UPPER RESPIRATORY INFECTIONS” (priority 2020, published 2024).
# Read-outs that look alike come from different tables or passages of the source. Marks after values point to notes of the source that are not given here.
# Columns and labels:
# SARS-CoV-2 [1] = format: cell-based; details: for Virus CCID50 per well ± SD: 22±2°C, average of 3 replicates; for LRV (log reduction value): compared to the virus control
# influenza virus = details: cited from earlier work
# SARS-CoV-2 [2] = details: cited from earlier work
molecule,measurement,setting,value
"CCO [EtOH (63%), Ethanol]",cytotoxicity in culture,Vero 76 cells,cytotoxic
same,Virus CCID50 per well ± SD,SARS-CoV-2 [1]; contact time 2 minutes,<1.7**** log CCID50 per 0.1 mL
same,LRV (log reduction value),SARS-CoV-2 [1]; contact time 2 minutes,>2.2 log10
same,Virus CCID50 per well ± SD,SARS-CoV-2 [1]; contact time 10 minutes,<1.7**** log CCID50 per 0.1 mL
same,LRV (log reduction value),SARS-CoV-2 [1]; contact time 10 minutes,>2.2 log10
CCOC(=O)C1=C[C@@H](OC(CC)CC)[C@H](NC(C)=O)[C@@H](N)C1 [Oseltamivir],influenza RNA concentration decrease,influenza virus; on day 2,−1.19 log10 copies/mL
same,influenza RNA concentration decrease,influenza virus; on day 4,−0.68 log10 copies/mL
LY-CoV555: SARS-CoV-2 neutralizing antibody,relative SARS-CoV-2 RNA decrease versus placebo,SARS-CoV-2 [2]; day 3,−0.64 log10 copies/mL
same,relative SARS-CoV-2 RNA decrease versus placebo,SARS-CoV-2 [2]; day 7,−0.45 log10 copies/mL
